The conditions of data set [1]: French Pat. No. 1,566,045; cited from earlier work.
Data set [2] in a line: Comparative tests of antiarrhythmic action, neurotoxicity and side effects (general statements). The conditions noted are these: general statement.
For data set [3] the following is noted: Dahlbom and Dolby, Acta Pharm. Suecica (1969); cited from earlier work.
Data set [4] can be described thus: Acute toxicity, i.p. injection in mice. The conditions noted are these: mouse, in vivo, ip, 0.5% solution, male albino ICR mice, probit analysis. The procedure:
The toxicity of Compound I was determined by i.p. injection of a 0.5% solution of the drug into male, albino ICR mice weighing 20-25 g each. A group of six mice was used for each dose.

The nature of data set [5]: Interaction with metrazole-induced convulsions. The class given is in vivo. As to conditions: metrazole 100 mg/kg; i.p. 30, 60 and 90 minutes prior to metrazole. The source says: (§1) The lack of interaction of Compound I with other centrally active drugs may also be taken as an indication of its lack of activity in the CNS.
The nature of data set [6]: Interaction with oxotremorine-induced tremors. The class given is in vivo. As to conditions: oxotremorine 20 μg/kg i.p.; given i.p. 30 minutes prior.
Source text: as §1

Data set [7] can be described thus: Interaction with Indoklon-induced seizures. It counts as in vivo. As to conditions: Indoklon by inhalation 30 minutes later.
Source text: as §1

Data set [8] in a line: Interaction with electro shock-induced seizure. It counts as in vivo. As to conditions: 30 volts.
Source text: as §1

The subject of data set [9] is conscious, healthy dogs. As to conditions: dog, in vivo, iv, 5 mg/kg.
Data set [10] has as its system normal heart. As to the kind of experiment: Effect on normal heart (ECG) in conscious healthy dogs. The class given is in vivo. How it is done:
The effect of Compound I on the normal heart was determined by the administration of the compound as a bolus intravenous injection to conscious healthy dogs for which lead II of the electrocardiogram was monitored for as long as 2 hours after injection.
In one case, a single dose of 5 mg/kg was administered rapidly in order to achieve a high but transient concentration in the heart. […] The ECG record reverted to normal within 15 minutes.

The subject of data set [11] is normal heart. As to the kind of experiment: Effect on normal heart (ECG) in nembutal-anesthetized dog. The class given is in vivo. As to conditions: nembutal 25 mg/kg; cumulative i.v. dose 6 mg/kg over 30 minutes.
The subject of data set [12] is normal heart. As to the kind of experiment: Effect on normal heart (ECG) in nembutal-anesthetized cats. The class given is in vivo. How it is done:
Nembutal anesthetized cats responded differently. […] If drug administration was discontinued at this stage, then the severe toxic effects would disappear after 40 minutes, the heart reverting to normal sinus rhythm.

Data set [13] is described as follows: Ouabain-induced arrhythmia in the cat. Also on record: key to S.R. (sinus rhythm), Lidocaine-treated / S.R. (sinus rhythm), Compound I treated: +: denotes return to the rhythm. The class given is in vivo.
Data set [14] can be described thus: Ouabain-induced arrhythmia in dogs. The class given is in vivo. Also on record: key to S.R. (sinus rhythm), Compound I treated: +: denotes return to the rhythm. How it is done: In other experiments using mongrel dogs, the animals were anesthetized by an i.v. injection of nembutal (25 mg/kg), then arrhythmia was induced by the administration of decreasing doses of ouabain at 30 minute intervals, 40, 20 and 10 μg/kg. Treatment with Compound I was then carried out as described for cats.

A short description of data set [15]: Occlusion-induced arrhythmias in conscious dogs, parenteral administration. It counts as in vivo. The procedure:
The effect of parenteral administration of Compound I on occlusion-induced arrhythmias in conscious dogs was determined. Occulsion was achieved by ligation of the left anteria descending coronary artery on 5 dogs.
Compound I was administered once within 24 hours and once within 48 hours after ligation.

The nature of data set [16]: Occlusion-induced arrhythmias in conscious dogs, oral administration. The class given is in vivo. The conditions noted are these: oral 15-20 mg/kg in 4 to 6 gelatin capsules, all cases. How it is done:
Tests were also carried out to determine the effect of oral administration of Compound I on occlusion induced arrhythmias in conscious dogs.
Arrhythmia was induced by occlusion of the left anterior descending artery, as above described. Following this, Compound I was administered orally to the animals at the rate of 15-20 mg/kg, the dose being divided among 4 to 6 gelatin capsules, without prior treatment such as micronization or admixture with a diluent or carrier.

Data set [17] in a line: Pharmacokinetic parameters in conscious dogs with occlusion-induced arrhythmia. The class given is in vivo. As to conditions: dog, blood, iv. How it is done:
The pharmacokinetic parameters of Compound I were determined in conscious dogs suffering from occlusion-induced arrhythmia. After intravenous injection of a single therapeutic dose, venous blood samples were withdrawn at given intervals, heparinized and analyzed for their content of Compound I by gas chromatography.

A short description of data set [18]: Biological availability by the oral route in dog. It counts as in vivo. The procedure: The biological availability of Compound I administered by the oral route was determined first in a conscious, healthy dog that received a dose of 7.5 mg/kg subdivided in 6 gelatin capsules that were slipped down its throat.
Data set [19] is described as follows: Summary comparison with lidocaine: ouabain-induced arrhythmia. The class given is in vivo. As to conditions: i.v.
The conditions of data set [20]: in vivo.
The conditions of data set [21]: in vivo. The source holds these as a separate data set.
The nature of data set [22]: Solubility.
The nature of data set [23]: Summary comparison with lidocaine: side effects. As to conditions: summary table.
Setting [24] is: dog, conditions as Table 1, hydrochloride.

Several values for one entry are separate records, joined by “and”; a condition that tells them apart may be missing. Equal values may be shown once. Entries after “also recorded” stand apart in the source; their conditions may differ. Where a name gives a salt, the structure may show the parent alone. Read-outs that look alike come from different tables or passages of the source.

As to `Cc1cccc(C)c1NC(=O)C1CC2CCN1CC2` (stereo not drawn) [2,6-xylidide of quinuclidine-2-carboxylic acid], in data set [1], the action indicated result was “antiarrhythmic and local anaesthetic action”. Besides, in data set [2], the cardiac antiarrhythmic action result was “devoid of useful cardiac antiarrhythmic action; also recorded: devoid of useful antiarrhythmic properties; also recorded: devoid of any useful cardiac antiarrhythmic effect” and the neurotoxicity entry is given as “neurotoxic”. Moreover, in [2] (listed as 2,6,-xylidide of quinuclidine-2-carboxylic acid), the cardiac antiarrhythmic action result is listed as “completely devoid of any useful antiarrhythmic action”.
As for `Cc1cccc(C)c1NC(=O)C1CN2CCC1CC2` (stereo not drawn) [2,6-xylidide of quinuclidine-3-carboxylic acid], in data set [3], the pharmacological effect result is “no pharmacological effect except for a weak local anaesthetic action”. The cardiac antiarrhythmic action result in data set [2] is reported as “pronounced cardiac antiarrhythmic activity; also recorded: highly pronounced cardiac antiarrhythmic action”.
The term LD50 denotes the dose at which mortality reaches 50%. The term bioavailability denotes dose-corrected exposure relative to a reference, in per cent. In data set [4], `Cc1cccc(C)c1NC(=O)C1CN2CCC1CC2` (stereo not drawn) [Compound I, 2,6-xylidide of quinuclidine-3-carboxylic acid hydrochloride] showed an LD50 of 60 ± 5 mg/kg. Moreover, the “effect on metrazole-induced convulsions” value in data set [5] is “did not affect metrazole-induced convulsions”. For the same compound, the “effect on oxotremorine-induced tremors” value in [6] is reported as “did not affect oxotremorine-induced tremors”. Moreover, in data set [7], the “effect against Indoklon-induced seizures” value is “equally ineffective”. Besides, in [8], the “effect against electro shock-induced seizure” value is “equally ineffective”. Moreover, the “change in posture, behavior or mood” value in [9] is on record as “no significant change in posture, behavior or mood from control”. Also, the “effect on ECG” value in data set [10] (dog, in vivo, 5 mg/kg) is on record as “Broadening of the QRS complex was observed”; in data set [12] (cumulative dose 6 mg/kg), “broadening of the QRS occurred but sinus rhythm was maintained”; in [12] (cumulative dose 10.5 mg/kg), “broadening of the QRS occurred but sinus rhythm was maintained”; in data set [12] (total dose of 3 mg/kg in small increments over 34 minutes), “leftward shift of the QRS complex”. Further, the “time for ECG record to revert to normal” value in [10] (dog, in vivo, 5 mg/kg) was at most 15 min. For the same compound, the “change in the ECG” value in data set [10] (dog, in vivo, iv, 3 mg/kg) is on record as “no change in the ECG”; in [11], “no change in the ECG”. The “other signs of overt toxicity” value in data set [10] (single dose of 5 mg/kg administered rapidly, one case) is on record as “no other signs of overt toxicity”. In addition, the “effect on ECG / conduction” value in [12] (cumulative dose 16.5 mg/kg, hydrochloride, 16.5 mg/kg) is given as “second degree AV block occurred; also recorded: Atrial conduction slowed down”. Besides, in [12] (drug administration discontinued after 16.5 mg/kg cumulative, heart reverting to normal sinus rhythm), the “time to disappearance of severe toxic effects” value worked out at 40 min. In addition, the “effect on ECG / heart” value in data set [12] (further […], total cumulative dose 23.5 mg/kg) is “high degree AV block, followed by cardiac standstill”. Further, the “B.P. (blood pressure), Compound I treated” value is 80/60 in [13] (cat 1, 0.5 mg/kg used); 100/80 and 140/110 in data set [14] (setting [24]). Moreover, the “Duration (period of observation from onset of reversal of arrhythmia)” value in data set [13] (cat 1, 0.5 mg/kg used) is 10 min; in [13] (cat 3, bolus i.v. 1 mg/kg, after ouabain) it was 240 min; in [14] (setting [24]) it was 40 min and 25 min. In addition, the “H.R. (heart rate), Compound I treated” value in [13] (cat 1, 0.5 mg/kg used) was found to be 100 per min; in data set [14] (dog, conditions as Table 1), 170 per min. Besides, the “S.R. (sinus rhythm), Compound I treated” value in data set [13] (cat 1, 0.5 mg/kg used) is “+”; in data set [14] (dog, conditions as Table 1), “+”. Also, the “improvement of the ECG” value in [13] (cat, single dose 1 mg/kg, 10 minutes after constant arrhythmia, ouabain 70-90 μg/kg cumulative) is “marked improvement of the ECG that lasted much longer than any improvement achieved with lidocaine”. For the same compound, the “reappearance of arrhythmia and response to additional dose” value in data set [13] (cats marked ##, additional dose 1 mg/kg for 2, 7 and 0.5 mg/kg for 10) is “suppressed again with an additional dose of EO-122”; in data set [14] (dogs 14, 15, one i.v. injection of […]), “Arrhythmia reappeared after this period but was suppressed”. The “reversal of VT to normal sinus rhythm” value in data set [14] (dogs, 1 mg/kg single doses) was “reversal of VT to normal sinus shythm was achieved”. Also, in data set [15] (i.v.), the “Onset of effect, occlusion-induced arrhythmia within 1st 24 hr.” value was 2 min. Also, the “duration of full, uninterrupted sinus rhythm” value in data set [15] (one bolus i.v. injection of 3 mg/kg within 24 hours after ligation) was at most 20 min. Also, the “restoration of normal sinus rhythm” value in data set [16] is recorded as “fully effective in the restoration of normal sinus rhythm”. The half-life in [17] (i.v. single therapeutic dose, conscious arrhythmic dogs, venous blood, GC, read-out: Biological half-life (t1/2)) is 4 to 5 h; in data set [17] (i.v. single therapeutic dose, conscious arrhythmic dogs, read-out: t1/2 for distribution) it was 0.0833 h; in data set [17] (summary table, read-out: t1/2 for distribution) it was 0.0833 h; in [17] (summary table, read-out: t1/2 for elimination), 4 to 5 h. For the same compound, the Vd in data set [17] (summary table, read-out: volume of distribution) was found to be 0.2 L/kg. The “bioavailability in conscious arrhythmic dogs” value in data set [18] (conscious arrhythmic dogs, oral, relative to healthy dog) is “of the same order”. Also, the bioavailability in [18] (dog, in vivo, po, summary table) was about 80%. Besides, the Cmax in data set [18] (in vivo, oral 7.5 mg/kg in 6 gelatin capsules, conscious healthy dog, read-out: Peak blood concentration) is 1500 to 2000 ng/mL. Moreover, in [19], the “Duration of effect, ouabain-induced arrhythmia” value is on record as “about 1 hour”. Moreover, the “Onset of effect, ouabain-induced arrhythmia” value in data set [19] is listed as “about 2 minutes”. Further, the “Side effects: Hypotension” value in [20] is “none”. Further, in [21], the side effects result is “absence of side effects such as hypotension and CNS stimulation”. For the same compound, the solubility entry in data set [22] is given as “highly soluble”. In [23], the “Side effects: CNS-effects” value was “none”. Also, the “Side effects: Emesis” value in data set [23] is “partial”.

Source of the values: US4146628A, “Antiarrhythmic quinuclidine carboxylic acid xylidide and method of producing the same and similar compounds” (priority 1977, dated 1979).
